Assay results as given in PubChem BioAssay AID1963864 (Molecular Pharmacology Branch, DTP, NCI, 2024).

Tested on: KRAS PDC multicell spheroid viability
Test: Anticancer human tumor 521955-158-R6-J3-PDC patient-derived pancreatic carcinoma cell line growth inhibition [KRAS2]
Details: for IC50: curve of first compound; for viability, T/C: stronger effect = lower value
How it was run: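 KRAS-mutant tumor cells were grown as spheroids with HUVEC endothelial cells and human MSCs as stroma. Targeted agents were tested alone and with KRAS pathway inhibitors. Doses started at or near clinical Cmax, or 10 microM, descending half-log.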

[1] = second compound 0.1 µM, first compound 0.0316 µM
[2] = second compound 0.1 µM, first compound 0.1 µM
[3] = second compound 0.1 µM, first compound 0.316 µM
[4] = second compound 0.1 µM, first compound 1 µM
[5] = second compound 0.1 µM, first compound 3.16 µM
[6] = second compound 0.316 µM, first compound 0.0316 µM
[7] = second compound 0.316 µM, first compound 0.1 µM
[8] = second compound 0.316 µM, first compound 0.316 µM
[9] = second compound 0.316 µM, first compound 1 µM
[10] = second compound 0.316 µM, first compound 3.16 µM
[11] = second compound 1 µM, first compound 0.0316 µM
[12] = second compound 1 µM, first compound 0.1 µM
[13] = second compound 1 µM, first compound 0.316 µM
[14] = second compound 1 µM, first compound 1 µM
[15] = second compound 1 µM, first compound 3.16 µM
[16] = second compound 3.16 µM, first compound 0.0316 µM
[17] = second compound 3.16 µM, first compound 0.1 µM
[18] = second compound 3.16 µM, first compound 0.316 µM
[19] = second compound 3.16 µM, first compound 1 µM
[20] = second compound 3.16 µM, first compound 3.16 µM
[21] = second compound 10 µM, first compound 0.0316 µM
[22] = second compound 10 µM, first compound 0.1 µM
[23] = second compound 10 µM, first compound 0.316 µM
[24] = second compound 10 µM, first compound 1 µM
[25] = second compound 10 µM, first compound 3.16 µM
[26] = second compound 0.1 µM, first compound 0.01 µM
[27] = second compound 0.316 µM, first compound 0.01 µM
[28] = second compound 1 µM, first compound 0.01 µM
[29] = second compound 3.16 µM, first compound 0.01 µM
[30] = second compound 10 µM, first compound 0.01 µM
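Further: drug exposure lasted seven days.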
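Wherever viability, T/C is given: 100% = DMSO vehicle wells and lower means fewer viable cells.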

Row | SMILES | IC50 (second compound 0.1 µM) [nM] | IC50 (second compound 0.316 µM) [nM] | IC50 (second compound 1 µM) [nM] | IC50 (second compound 3.16 µM) [nM] | IC50 (second compound 10 µM) [nM] | viability, T/C [1] [%] | viability, T/C [2] [%] | viability, T/C [3] [%] | viability, T/C [4] [%] | viability, T/C [6] [%] | viability, T/C [7] [%] | viability, T/C [8] [%] | viability, T/C [9] [%] | viability, T/C [11] [%] | viability, T/C [12] [%] | viability, T/C [13] [%] | viability, T/C [14] [%] | viability, T/C [16] [%] | viability, T/C [17] [%] | viability, T/C [18] [%] | other results
1 | CC(C)NCC(C(=O)N1CCN(c2ncnc3c2C(C)CC3O)CC1)c1ccc(Cl)cc1 (stereo not given) + CC1OCC2(CCN(c3cnc(Sc4ccnc(N)c4Cl)c(N)n3)CC2)C1N | > 10000 | > 10000 | > 10000 | 1350 | 643 | 86.9 | 77.1 | 68.8 | 68.7 | 84.3 | 71.4 | 61.1 | 63.5 | 78.1 | 74.6 | 60.7 | 54.7 | 86.9 | 78.7 | 59.7 | viability, T/C [5]: 61.7%; viability, T/C (second compound 0.1 µM, first compound 10 µM): 56%; viability, T/C [10]: 60.2%; viability, T/C (second compound 0.316 µM, first compound 10 µM): 48.9%; viability, T/C [15]: 50.9%; viability, T/C (second compound 1 µM, first compound 10 µM): 51.7%; viability, T/C [19]: 53%; viability, T/C [20]: 47.5%; viability, T/C (second compound 3.16 µM, first compound 10 µM): 43.3%; viability, T/C [21]: 102%; viability, T/C [22]: 73.8%; viability, T/C [23]: 56.7%; viability, T/C [24]: 43.9%; viability, T/C [25]: 44.2%; viability, T/C (second compound 10 µM, first compound 10 µM): 34.1%
2 | CC1COCCN1c1cc(-c2ccnn2C)c2ccnc(-c3ccn[nH]3)c2n1 (stereo not given) + CC1OCC2(CCN(c3cnc(Sc4ccnc(N)c4Cl)c(N)n3)CC2)C1N | > 3160 | > 3160 | > 3160 | > 3160 | > 3160 | 81.1 | 73.9 | 67.6 | 67.3 | 84.5 | 74.6 | 64.3 | 71.2 | 84.8 | 81.4 | 76.7 | 68.3 | 109 | 99.9 | 75.8 | viability, T/C [26]: 87.9%; viability, T/C [5]: 75.2%; viability, T/C [27]: 89.9%; viability, T/C [10]: 64.4%; viability, T/C [28]: 91.9%; viability, T/C [15]: 61%; viability, T/C [29]: 102%; viability, T/C [19]: 67.8%; viability, T/C [20]: 66.6%; viability, T/C [30]: 108%; viability, T/C [21]: 115%; viability, T/C [22]: 90.7%; viability, T/C [23]: 87.6%; viability, T/C [24]: 79.3%; viability, T/C [25]: 64.9%
3 | CCN1CCN(Cc2ccc(Nc3ncc(F)c(-c4cc(F)c5nc(C)n(C(C)C)c5c4)n3)nc2)CC1 + CC1OCC2(CCN(c3cnc(Sc4ccnc(N)c4Cl)c(N)n3)CC2)C1N | > 1000 | > 1000 | > 1000 | > 1000 | > 1000 | 73 | 68.4 | 76 | 88.2 | 82.3 | 69.2 | 71.8 | 85.3 | 97 | 82.1 | 78.8 | 90.1 | 84.4 | 78.7 | 83.6 | viability, T/C (second compound 0.1 µM, first compound 0.00316 µM): 81.3%; viability, T/C [26]: 79.9%; viability, T/C (second compound 0.316 µM, first compound 0.00316 µM): 101%; viability, T/C [27]: 84.1%; viability, T/C (second compound 1 µM, first compound 0.00316 µM): 94.5%; viability, T/C [28]: 91.2%; viability, T/C (second compound 3.16 µM, first compound 0.00316 µM): 113%; viability, T/C [29]: 109%; viability, T/C [19]: 115%; viability, T/C (second compound 10 µM, first compound 0.00316 µM): 118%; viability, T/C [30]: 116%; viability, T/C [21]: 111%; viability, T/C [22]: 114%; viability, T/C [23]: 95.1%; viability, T/C [24]: 86.7%
